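Where inhibition never reached the appropriate level, the endpoint shown equals the highest concentration tested. Otherwise, values were interpolated linearly from a five-concentration, 48-hour dose response in 96-well plates. GI50: concentration for 50% inhibition of growth. Definition used: TGI = concentration required for complete inhibition of growth.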
Legend:
Assay in all cases: NCI anticancer screen, dose series, 48 h
SF-539 CNS = system: SF-539 CNS
NCI-H226 lung = system: NCI-H226 lung
SK-OV-3 ovarian = system: SK-OV-3 ovarian
ACHN renal = system: ACHN renal
LOX IMVI melanoma = system: LOX IMVI melanoma
MALME-3M melanoma = system: MALME-3M melanoma
SR leukemia = system: SR leukemia
SF-268 CNS = system: SF-268 CNS
NCI-H522 lung = system: NCI-H522 lung
SW-620 colon = system: SW-620 colon
SF-295 CNS = system: SF-295 CNS
EKVX NSCLC = system: EKVX NSCLC
PC-3 prostate = system: PC-3 prostate
SK-MEL-28 melanoma = system: SK-MEL-28 melanoma
OVCAR-4 ovarian = system: OVCAR-4 ovarian
MOLT-4 leukemia = system: MOLT-4 leukemia
NCI-H23 lung = system: NCI-H23 lung
CAKI-1 renal = system: CAKI-1 renal
SN12C renal = system: SN12C renal
RPMI-8226 leukemia = system: RPMI-8226 leukemia
RXF 393 renal = system: RXF 393 renal
UACC-62 melanoma = system: UACC-62 melanoma
OVCAR-8 ovarian = system: OVCAR-8 ovarian
HCT-15 colon = system: HCT-15 colon
HL-60(TB) leukemia = system: HL-60(TB) leukemia
BT-549 breast = system: BT-549 breast
K-562 leukemia = system: K-562 leukemia
HOP-62 NSCLC = system: HOP-62 NSCLC
HS 578T breast = system: HS 578T breast
T-47D breast = system: T-47D breast
MDA-MB-231 breast = system: MDA-MB-231 breast
OVCAR-5 ovarian = system: OVCAR-5 ovarian
IGROV1 ovarian = system: IGROV1 ovarian
786-0 renal = system: 786-0 renal
MDA-MB-435 = system: MDA-MB-435
A498 renal = system: A498 renal
SK-MEL-2 melanoma = system: SK-MEL-2 melanoma
HT29 colon = system: HT29 colon
OVCAR-3 ovarian = system: OVCAR-3 ovarian
COLO 205 colon = system: COLO 205 colon
M14 melanoma = system: M14 melanoma
SNB-75 CNS = system: SNB-75 CNS
CCRF-CEM leukemia = system: CCRF-CEM leukemia
SNB-19 CNS = system: SNB-19 CNS
DU-145 prostate = system: DU-145 prostate
NCI-H460 lung = system: NCI-H460 lung
A549 NSCLC = system: A549 NSCLC
UACC-257 melanoma = system: UACC-257 melanoma
HCC-2998 colon = system: HCC-2998 colon
HOP-92 NSCLC = system: HOP-92 NSCLC
MCF7 breast = system: MCF7 breast
KM12 colon = system: KM12 colon
U251 CNS = system: U251 CNS
SK-MEL-5 melanoma = system: SK-MEL-5 melanoma
UO-31 renal = system: UO-31 renal
HCT-116 colon = system: HCT-116 colon
NCI/ADR-RES ovarian = system: NCI/ADR-RES ovarian
TK-10 renal = system: TK-10 renal

COc1cc2c3c(n(CCCN4CCCC4)c(=O)c2cc1OC)-c1cc2c(cc1C3=O)OCO2
GI50 (SF-539 CNS): 1.32 µM | TGI (SF-539 CNS): 2.77 µM | GI50 (NCI-H226 lung): 5.87 µM | TGI (NCI-H226 lung): 20.5 µM | GI50 (SK-OV-3 ovarian): 0.795 µM | TGI (SK-OV-3 ovarian): 2.46 µM | GI50 (ACHN renal): 1.36 µM | TGI (ACHN renal): 2.67 µM | GI50 (LOX IMVI melanoma): 0.68 µM | TGI (LOX IMVI melanoma): 2.29 µM | GI50 (MALME-3M melanoma): 1.5 µM | TGI (MALME-3M melanoma): 3.22 µM | GI50 (SR leukemia): 0.0514 µM | TGI (SR leukemia): 0.59 µM | GI50 (SF-268 CNS): 0.65 µM | TGI (SF-268 CNS): 2.37 µM | GI50 (NCI-H522 lung): 0.789 µM | TGI (NCI-H522 lung): 2.52 µM | GI50 (SW-620 colon): 0.624 µM | TGI (SW-620 colon): 3.45 µM | GI50 (SF-295 CNS): 0.223 µM | TGI (SF-295 CNS): 2.01 µM | GI50 (EKVX NSCLC): 1.95 µM | TGI (EKVX NSCLC): 3.96 µM | GI50 (PC-3 prostate): 1.47 µM | TGI (PC-3 prostate): 3.84 µM | GI50 (SK-MEL-28 melanoma): 1.71 µM | TGI (SK-MEL-28 melanoma): 3.38 µM | GI50 (OVCAR-4 ovarian): 1.77 µM | TGI (OVCAR-4 ovarian): 3.38 µM | GI50 (MOLT-4 leukemia): < 0.0179 µM | TGI (MOLT-4 leukemia): 1.61 µM | GI50 (NCI-H23 lung): 1.63 µM | TGI (NCI-H23 lung): 3.98 µM | GI50 (CAKI-1 renal): 1.16 µM | TGI (CAKI-1 renal): 2.45 µM | GI50 (SN12C renal): 1.65 µM | TGI (SN12C renal): 3.38 µM | GI50 (RPMI-8226 leukemia): 1.25 µM | TGI (RPMI-8226 leukemia): 4.5 µM | GI50 (RXF 393 renal): 1.49 µM | TGI (RXF 393 renal): 2.95 µM | GI50 (UACC-62 melanoma): 1.48 µM | TGI (UACC-62 melanoma): 3.48 µM | GI50 (OVCAR-8 ovarian): 1.36 µM | TGI (OVCAR-8 ovarian): 3.09 µM | GI50 (HCT-15 colon): 1.43 µM | TGI (HCT-15 colon): 3.1 µM | GI50 (HL-60(TB) leukemia): 0.677 µM | TGI (HL-60(TB) leukemia): 1.89 µM | GI50 (BT-549 breast): 1.4 µM | TGI (BT-549 breast): 3.49 µM | GI50 (K-562 leukemia): 0.216 µM | TGI (K-562 leukemia): 0.895 µM | GI50 (HOP-62 NSCLC): 0.65 µM | TGI (HOP-62 NSCLC): 2.46 µM | GI50 (HS 578T breast): 2.03 µM | TGI (HS 578T breast): 5.08 µM | GI50 (T-47D breast): 4.7 µM | TGI (T-47D breast): 11.1 µM | GI50 (MDA-MB-231 breast): 1.65 µM | TGI (MDA-MB-231 breast): 3.31 µM | GI50 (OVCAR-5 ovarian): 1.9 µM | TGI (OVCAR-5 ovarian): 3.5 µM | GI50 (IGROV1 ovarian): 1.42 µM | TGI (IGROV1 ovarian): 3.09 µM | GI50 (786-0 renal): 1.32 µM | TGI (786-0 renal): 2.9 µM | GI50 (MDA-MB-435): 1.59 µM | TGI (MDA-MB-435): 3.12 µM | GI50 (A498 renal): 5.53 µM | TGI (A498 renal): 10.8 µM | GI50 (SK-MEL-2 melanoma): 17.1 µM | TGI (SK-MEL-2 melanoma): 33.6 µM | GI50 (HT29 colon): 1.32 µM | TGI (HT29 colon): 2.76 µM | GI50 (OVCAR-3 ovarian): 1.57 µM | TGI (OVCAR-3 ovarian): 2.98 µM | GI50 (COLO 205 colon): 1.11 µM | TGI (COLO 205 colon): 2.55 µM | GI50 (M14 melanoma): 1.5 µM | TGI (M14 melanoma): 3.01 µM | GI50 (SNB-75 CNS): 0.286 µM | TGI (SNB-75 CNS): 1.96 µM | GI50 (CCRF-CEM leukemia): 0.0673 µM | TGI (CCRF-CEM leukemia): 2.31 µM | GI50 (SNB-19 CNS): 1.54 µM | TGI (SNB-19 CNS): 3.72 µM | GI50 (DU-145 prostate): 1.31 µM | TGI (DU-145 prostate): 2.58 µM | GI50 (NCI-H460 lung): 0.206 µM | TGI (NCI-H460 lung): 2.24 µM | GI50 (A549 NSCLC): 1.4 µM | TGI (A549 NSCLC): 2.85 µM | GI50 (UACC-257 melanoma): 1.49 µM | TGI (UACC-257 melanoma): 3.21 µM | GI50 (HCC-2998 colon): 1.38 µM | TGI (HCC-2998 colon): 2.8 µM | GI50 (HOP-92 NSCLC): 1.93 µM | TGI (HOP-92 NSCLC): 3.94 µM | GI50 (MCF7 breast): 0.228 µM | TGI (MCF7 breast): 2.21 µM | GI50 (KM12 colon): 1.61 µM | TGI (KM12 colon): 3.23 µM | GI50 (U251 CNS): 1.18 µM | TGI (U251 CNS): 2.48 µM | GI50 (SK-MEL-5 melanoma): 4.25 µM | TGI (SK-MEL-5 melanoma): 9.12 µM | GI50 (UO-31 renal): 1.43 µM | TGI (UO-31 renal): 2.85 µM | GI50 (HCT-116 colon): 1.14 µM | TGI (HCT-116 colon): 2.69 µM | GI50 (NCI/ADR-RES ovarian): 1.35 µM | TGI (NCI/ADR-RES ovarian): 3.68 µM | GI50 (TK-10 renal): 1.93 µM | TGI (TK-10 renal): 3.46 µM

Source: PubChem BioAssay (NCI)
